According to patent US5153181A, “Pharmaceutical compositions comprising organic polymers containing inorganic anionic groups and method of prophylaxis and treatment of retrovirus infections in mammals using said compositions” (priority 1986, dated 1992):
Where two headings read alike, the source gives them in different places.

Assays:
[1] = biological target: T1, SR-D-associated reverse transcriptase (Rous sarcoma virus - Schmidt-Ruppin B, UniProt O92956); assay type: biochemical
T1 construct: alpha/beta heterodimer cut from Gag-Pol polyprotein
T1 sequence (O92956 709-1567): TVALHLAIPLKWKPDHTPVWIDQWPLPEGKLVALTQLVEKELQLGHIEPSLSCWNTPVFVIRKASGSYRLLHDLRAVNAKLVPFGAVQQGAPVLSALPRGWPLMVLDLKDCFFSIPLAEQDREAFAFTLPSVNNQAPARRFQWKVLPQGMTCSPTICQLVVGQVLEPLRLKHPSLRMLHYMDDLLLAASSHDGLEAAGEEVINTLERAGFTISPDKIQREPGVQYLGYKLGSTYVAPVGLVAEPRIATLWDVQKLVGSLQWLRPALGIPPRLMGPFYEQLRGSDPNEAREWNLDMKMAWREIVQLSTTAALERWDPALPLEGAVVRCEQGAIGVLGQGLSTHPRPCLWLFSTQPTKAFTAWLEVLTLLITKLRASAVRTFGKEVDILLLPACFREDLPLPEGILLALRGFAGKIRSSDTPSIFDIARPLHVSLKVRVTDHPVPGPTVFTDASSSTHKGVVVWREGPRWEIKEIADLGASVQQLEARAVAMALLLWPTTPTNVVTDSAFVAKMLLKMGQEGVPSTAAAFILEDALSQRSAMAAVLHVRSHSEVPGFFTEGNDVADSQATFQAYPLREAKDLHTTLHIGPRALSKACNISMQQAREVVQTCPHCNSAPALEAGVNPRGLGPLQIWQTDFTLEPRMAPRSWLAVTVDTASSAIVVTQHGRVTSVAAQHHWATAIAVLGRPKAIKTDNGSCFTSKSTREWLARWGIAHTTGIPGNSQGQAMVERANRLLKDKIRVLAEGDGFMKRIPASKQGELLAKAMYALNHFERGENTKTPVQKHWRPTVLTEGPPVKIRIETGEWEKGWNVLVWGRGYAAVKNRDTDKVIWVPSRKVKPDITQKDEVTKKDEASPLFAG

[2] = LD50 taken from published literature; conditions: in vivo; calculated from MW
Text: The LD50 values are known from the literature.
The results shown in FIGS. 1A and B allow to determine the concentration of the inhibitors which result in 90% or 99% inhibition. The quotient of the LD50 values (taken from published literature) and the inhibitor concentrations indicated in FIG. 1 is the efficiency index shown in Table I.

[3] = cited from earlier work
[4] = known from the literature; cited from earlier work
[5] = poly(rA) template, oligo(dT)10 primer, FIGS. 1A and B

Compound	Inhibition of RNA-dependent DNA synthesis (3H-TMP incorporation) [1, 5]	further results
dextran sulfate MW 500,000	efficient inhibitors	–
O=C(O)P(=O)(O)O [foscarnet]	Somewhat less inhibitory	LD50 [2]: 500 mg/kg; Toxicity in clinical trials [3]: considerable toxicity
dextran sulfate MW 8,000	efficient inhibitors	–
pentosan polysulfate MW 5,000	Somewhat less inhibitory	–
dextran	Low inhibitory effect	–
chondroitin sulfate	Low inhibitory effect	–
dextran sulfate MW 5000	Low inhibitory effect	–
diethylamine ethyl-dextran [DEAE-dextran]	Low inhibitory effect	–
Cc1ccc(C(=O)Nc2ccc(S(=O)(=O)O)c3cc(S(=O)(=O)O)cc(S(=O)(=O)O)c23)cc1NC(=O)c1cccc(NC(=O)Nc2cccc(C(=O)Nc3cc(C(=O)Nc4ccc(S(=O)(=O)O)c5cc(S(=O)(=O)O)cc(S(=O)(=O)O)c45)ccc3C)c2)c1 [suramin]	–	Inhibition of RNA-dependent DNA synthesis (3H-TMP incorporation) [1]: Somewhat less inhibitory; LD50 [4]: 40 mg/kg
heparin	Low inhibitory effect	–
